Reference: paper PMC7265341, “Quantifying CDK inhibitor selectivity in live cells” (Nature Communications, 2020)
Where two headings read alike, the source gives them in different places.

How the values were obtained:
CDK12/Cyclin K = CDK12/Cyclin K (Homo sapiens, UniProt Q9NYV4); experiment: NanoBRET live-cell target engagement, CDK12-NanoLuc/Cyclin K in HEK-293; assay type: binding; conditions: 10µM
CDK20/Cyclin H = CDK20/Cyclin H (Homo sapiens, UniProt Q8IZL9); experiment: NanoBRET live-cell target engagement, NanoLuc-CDK20/Cyclin H in HEK-293; assay type: binding; conditions: 10µM
CDK6/Cyclin D1 = CDK6/Cyclin D1 (Homo sapiens, UniProt Q00534); experiment: NanoBRET live-cell target engagement, NanoLuc-CDK6/Cyclin D1 in HEK-293; assay type: binding; conditions: 10µM
CDK19/Cyclin C = CDK19/Cyclin C (Homo sapiens, UniProt Q9BWU1); experiment: NanoBRET live-cell target engagement, NanoLuc-CDK19/Cyclin C in HEK-293
CDK9/Cyclin K = CDK9/Cyclin K (Homo sapiens, UniProt P50750); experiment: NanoBRET live-cell target engagement, NanoLuc-CDK9/Cyclin K in HEK-293; assay type: binding; conditions: 10µM
CDK4/Cyclin D1 = CDK4/Cyclin D1 (Homo sapiens, UniProt P11802); experiment: NanoBRET live-cell target engagement, NanoLuc-CDK4/Cyclin D1 in HEK-293; assay type: binding; conditions: 10µM
CDK7 = CDK7 (Homo sapiens, UniProt P50613); experiment: NanoBRET live-cell target engagement, NanoLuc-CDK7 in HEK-293; assay type: binding; conditions: 10µM
CDK14/Cyclin Y = CDK14/Cyclin Y (Homo sapiens, UniProt O94921); experiment: NanoBRET live-cell target engagement, CDK14-NanoLuc/Cyclin Y in HEK-293; assay type: binding; conditions: 10µM
CDK13/Cyclin K = CDK13/Cyclin K (Homo sapiens, UniProt Q14004); experiment: NanoBRET live-cell target engagement, CDK13-NanoLuc/Cyclin K in HEK-293; assay type: binding; conditions: 10µM
CDK16/Cyclin Y = CDK16/Cyclin Y (Homo sapiens, UniProt Q00536); experiment: NanoBRET live-cell target engagement, CDK16-NanoLuc/Cyclin Y in HEK-293; assay type: binding; conditions: 10µM
CDK15/Cyclin Y = CDK15/Cyclin Y (Homo sapiens, UniProt Q96Q40); experiment: NanoBRET live-cell target engagement, NanoLuc-CDK15/Cyclin Y in HEK-293; assay type: binding; conditions: 10µM
CDK18/Cyclin Y = CDK18/Cyclin Y (Homo sapiens, UniProt Q07002); experiment: NanoBRET live-cell target engagement, CDK18-NanoLuc/Cyclin Y in HEK-293; assay type: binding; conditions: 10µM
CDK5/CDK5R1 = CDK5/CDK5R1 (Homo sapiens, UniProt Q00535); experiment: NanoBRET live-cell target engagement, CDK5-NanoLuc/CDK5R1 in HEK-293; assay type: binding; conditions: 10µM
CDK11B/Cyclin L2 = CDK11B/Cyclin L2 (Homo sapiens, UniProt P21127); experiment: NanoBRET live-cell target engagement, CDK11B-NanoLuc/Cyclin L2 in HEK-293; assay type: binding; conditions: 10µM
CDK1/Cyclin E1 = CDK1/Cyclin E1 (Homo sapiens, UniProt P06493); experiment: NanoBRET live-cell target engagement, CDK1-NanoLuc/Cyclin E1 in HEK-293; assay type: binding; conditions: 10µM
CDK8/Cyclin C = CDK8/Cyclin C (Homo sapiens, UniProt P49336); experiment: NanoBRET live-cell target engagement, NanoLuc-CDK8/Cyclin C in HEK-293; assay type: binding; conditions: for IC50: read-out: CDK8/C IC50
CDK17/Cyclin Y = CDK17/Cyclin Y (Homo sapiens, UniProt Q00537); experiment: NanoBRET live-cell target engagement, CDK17-NanoLuc/Cyclin Y in HEK-293; assay type: binding; conditions: 10µM
CDK11A/Cyclin L2 = target: T1, CDK11A/Cyclin L2 (Homo sapiens, UniProt Q9UQ88); experiment: NanoBRET live-cell target engagement, CDK11A-NanoLuc/Cyclin L2 in HEK-293; assay type: binding; conditions: 10µM
T1 sequence (Q9UQ88 1-783): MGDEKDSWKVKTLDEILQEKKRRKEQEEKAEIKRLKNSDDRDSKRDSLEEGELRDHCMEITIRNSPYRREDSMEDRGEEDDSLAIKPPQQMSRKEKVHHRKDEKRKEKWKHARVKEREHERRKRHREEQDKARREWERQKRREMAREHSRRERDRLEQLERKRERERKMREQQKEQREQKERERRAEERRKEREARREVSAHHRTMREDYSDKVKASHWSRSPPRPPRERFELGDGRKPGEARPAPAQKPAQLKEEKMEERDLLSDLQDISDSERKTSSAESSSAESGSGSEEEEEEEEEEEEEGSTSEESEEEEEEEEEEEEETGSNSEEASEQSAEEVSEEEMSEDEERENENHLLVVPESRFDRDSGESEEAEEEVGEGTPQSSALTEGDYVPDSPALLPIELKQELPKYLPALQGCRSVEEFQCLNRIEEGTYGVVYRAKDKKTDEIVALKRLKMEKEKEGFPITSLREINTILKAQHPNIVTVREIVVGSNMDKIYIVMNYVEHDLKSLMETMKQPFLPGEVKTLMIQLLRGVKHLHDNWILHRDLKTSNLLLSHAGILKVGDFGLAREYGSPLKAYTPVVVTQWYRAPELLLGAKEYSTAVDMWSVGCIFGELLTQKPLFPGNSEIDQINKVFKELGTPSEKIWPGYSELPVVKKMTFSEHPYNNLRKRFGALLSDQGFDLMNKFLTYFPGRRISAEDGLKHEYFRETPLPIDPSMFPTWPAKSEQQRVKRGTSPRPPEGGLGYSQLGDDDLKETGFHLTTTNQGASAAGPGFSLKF

CDK10/Cyclin L2 = CDK10/Cyclin L2 (Homo sapiens, UniProt Q15131); experiment: NanoBRET live-cell target engagement, CDK10-NanoLuc/Cyclin L2 in HEK-293; conditions: 10µM
CDK3/Cyclin E1 = CDK3/Cyclin E1 (Homo sapiens, UniProt Q00526); experiment: NanoBRET live-cell target engagement, CDK3-NanoLuc/Cyclin E1 in HEK-293; assay type: binding; conditions: 10µM
CDK2/Cyclin E1 = CDK2/Cyclin E1 (Homo sapiens, UniProt P24941); experiment: NanoBRET live-cell target engagement, CDK2-NanoLuc/Cyclin E1 in HEK-293; assay type: binding; conditions: 10µM

Sequence of CDK19/Cyclin C (Q9BWU1 whole entry): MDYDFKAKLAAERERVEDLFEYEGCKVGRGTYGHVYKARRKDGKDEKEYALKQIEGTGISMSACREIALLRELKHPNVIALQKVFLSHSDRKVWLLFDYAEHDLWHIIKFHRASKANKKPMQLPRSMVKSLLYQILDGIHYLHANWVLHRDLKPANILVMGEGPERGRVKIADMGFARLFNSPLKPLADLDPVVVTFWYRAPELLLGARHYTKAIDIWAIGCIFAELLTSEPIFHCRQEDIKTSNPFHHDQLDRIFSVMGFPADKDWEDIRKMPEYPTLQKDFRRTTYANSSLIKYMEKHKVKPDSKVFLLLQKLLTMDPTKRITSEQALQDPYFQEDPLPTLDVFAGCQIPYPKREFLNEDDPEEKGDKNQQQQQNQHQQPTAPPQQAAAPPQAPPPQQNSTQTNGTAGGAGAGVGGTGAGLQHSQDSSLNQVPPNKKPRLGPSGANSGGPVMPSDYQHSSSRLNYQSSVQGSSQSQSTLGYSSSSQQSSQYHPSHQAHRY
Sequence of CDK19/Cyclin C (P24863 whole entry partner): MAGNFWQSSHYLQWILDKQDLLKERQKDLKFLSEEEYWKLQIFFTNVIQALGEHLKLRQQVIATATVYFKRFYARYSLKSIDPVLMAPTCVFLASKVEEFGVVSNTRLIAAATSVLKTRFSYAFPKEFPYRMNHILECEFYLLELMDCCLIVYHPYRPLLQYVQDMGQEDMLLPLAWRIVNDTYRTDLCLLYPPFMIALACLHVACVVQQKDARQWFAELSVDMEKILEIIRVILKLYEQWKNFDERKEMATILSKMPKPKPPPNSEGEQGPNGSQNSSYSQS
Sequence of CDK10/Cyclin L2 (Q15131 whole entry): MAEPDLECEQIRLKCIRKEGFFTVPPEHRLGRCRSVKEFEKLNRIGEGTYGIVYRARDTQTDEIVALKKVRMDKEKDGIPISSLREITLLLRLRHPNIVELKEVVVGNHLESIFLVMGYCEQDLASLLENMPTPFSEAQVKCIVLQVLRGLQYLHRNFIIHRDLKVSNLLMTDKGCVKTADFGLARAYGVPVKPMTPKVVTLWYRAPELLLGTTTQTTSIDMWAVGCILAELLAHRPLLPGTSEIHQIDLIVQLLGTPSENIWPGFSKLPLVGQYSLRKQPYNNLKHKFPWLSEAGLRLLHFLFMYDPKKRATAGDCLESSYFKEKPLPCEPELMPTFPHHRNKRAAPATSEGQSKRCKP
Sequence of CDK8/Cyclin C (P49336 whole entry): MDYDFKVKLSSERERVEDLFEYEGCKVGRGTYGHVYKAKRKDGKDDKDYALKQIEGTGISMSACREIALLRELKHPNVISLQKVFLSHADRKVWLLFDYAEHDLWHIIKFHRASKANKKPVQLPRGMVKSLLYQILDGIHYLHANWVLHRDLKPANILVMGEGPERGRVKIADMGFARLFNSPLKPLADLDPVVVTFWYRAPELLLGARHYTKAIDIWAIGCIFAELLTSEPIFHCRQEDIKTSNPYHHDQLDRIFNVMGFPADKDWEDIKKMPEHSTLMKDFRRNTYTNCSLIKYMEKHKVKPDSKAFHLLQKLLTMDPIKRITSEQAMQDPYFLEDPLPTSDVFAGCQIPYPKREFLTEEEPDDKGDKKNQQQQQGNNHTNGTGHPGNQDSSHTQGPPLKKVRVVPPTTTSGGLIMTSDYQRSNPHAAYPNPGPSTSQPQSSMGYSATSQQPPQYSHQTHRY
Sequence of CDK8/Cyclin C (P24863 whole entry partner): as the sequence (P24863 whole entry partner) above
Sequence of CDK5/CDK5R1 (Q00535 whole entry): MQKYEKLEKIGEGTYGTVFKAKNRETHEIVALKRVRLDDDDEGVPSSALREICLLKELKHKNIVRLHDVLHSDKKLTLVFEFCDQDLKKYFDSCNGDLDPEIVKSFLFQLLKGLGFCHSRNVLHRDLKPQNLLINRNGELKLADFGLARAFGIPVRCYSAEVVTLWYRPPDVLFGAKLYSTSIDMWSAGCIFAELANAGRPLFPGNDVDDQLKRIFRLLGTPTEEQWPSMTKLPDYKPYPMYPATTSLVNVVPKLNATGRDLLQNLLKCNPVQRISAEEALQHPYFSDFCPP
Sequence of CDK5/CDK5R1 (Q15078 whole entry partner): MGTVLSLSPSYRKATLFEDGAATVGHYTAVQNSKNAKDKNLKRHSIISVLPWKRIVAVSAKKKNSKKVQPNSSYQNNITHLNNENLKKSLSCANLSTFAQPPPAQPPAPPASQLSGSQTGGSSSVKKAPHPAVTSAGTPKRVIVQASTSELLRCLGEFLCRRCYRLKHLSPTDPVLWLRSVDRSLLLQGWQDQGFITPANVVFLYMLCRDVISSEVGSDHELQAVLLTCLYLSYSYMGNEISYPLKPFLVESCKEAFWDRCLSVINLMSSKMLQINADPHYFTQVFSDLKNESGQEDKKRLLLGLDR
Sequence of CDK15/Cyclin Y (Q96Q40 whole entry): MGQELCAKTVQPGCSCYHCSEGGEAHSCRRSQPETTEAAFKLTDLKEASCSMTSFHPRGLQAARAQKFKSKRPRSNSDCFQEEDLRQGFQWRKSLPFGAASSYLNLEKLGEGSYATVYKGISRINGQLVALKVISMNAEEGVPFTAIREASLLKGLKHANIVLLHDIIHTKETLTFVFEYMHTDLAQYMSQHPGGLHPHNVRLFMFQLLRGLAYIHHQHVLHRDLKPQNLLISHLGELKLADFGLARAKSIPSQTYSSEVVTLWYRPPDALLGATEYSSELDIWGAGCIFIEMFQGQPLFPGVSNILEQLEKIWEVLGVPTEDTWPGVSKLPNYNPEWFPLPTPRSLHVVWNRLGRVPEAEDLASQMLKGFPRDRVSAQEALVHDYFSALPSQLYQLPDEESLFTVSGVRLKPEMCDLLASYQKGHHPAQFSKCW
Sequence of CDK15/Cyclin Y (Q8ND76 whole entry partner): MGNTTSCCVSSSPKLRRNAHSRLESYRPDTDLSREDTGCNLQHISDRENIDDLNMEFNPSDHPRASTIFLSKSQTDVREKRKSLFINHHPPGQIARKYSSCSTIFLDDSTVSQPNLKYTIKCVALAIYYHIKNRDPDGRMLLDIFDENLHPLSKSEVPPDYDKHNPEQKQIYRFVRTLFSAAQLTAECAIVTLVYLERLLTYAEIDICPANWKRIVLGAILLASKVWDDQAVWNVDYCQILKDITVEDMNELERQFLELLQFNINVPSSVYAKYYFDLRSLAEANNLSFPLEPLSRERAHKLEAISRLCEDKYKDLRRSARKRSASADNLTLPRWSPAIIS
Sequence of CDK9/Cyclin K (P50750 whole entry): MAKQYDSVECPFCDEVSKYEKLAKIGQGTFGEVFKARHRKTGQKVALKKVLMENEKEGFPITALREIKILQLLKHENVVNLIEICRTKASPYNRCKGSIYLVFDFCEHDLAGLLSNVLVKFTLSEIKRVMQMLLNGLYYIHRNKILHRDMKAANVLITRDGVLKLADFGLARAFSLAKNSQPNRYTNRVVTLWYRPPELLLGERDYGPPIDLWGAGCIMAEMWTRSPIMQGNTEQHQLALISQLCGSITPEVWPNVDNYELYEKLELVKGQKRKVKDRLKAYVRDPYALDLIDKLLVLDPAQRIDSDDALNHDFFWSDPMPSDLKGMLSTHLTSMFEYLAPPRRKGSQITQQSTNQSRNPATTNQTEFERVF
Sequence of CDK9/Cyclin K (O75909 whole entry partner): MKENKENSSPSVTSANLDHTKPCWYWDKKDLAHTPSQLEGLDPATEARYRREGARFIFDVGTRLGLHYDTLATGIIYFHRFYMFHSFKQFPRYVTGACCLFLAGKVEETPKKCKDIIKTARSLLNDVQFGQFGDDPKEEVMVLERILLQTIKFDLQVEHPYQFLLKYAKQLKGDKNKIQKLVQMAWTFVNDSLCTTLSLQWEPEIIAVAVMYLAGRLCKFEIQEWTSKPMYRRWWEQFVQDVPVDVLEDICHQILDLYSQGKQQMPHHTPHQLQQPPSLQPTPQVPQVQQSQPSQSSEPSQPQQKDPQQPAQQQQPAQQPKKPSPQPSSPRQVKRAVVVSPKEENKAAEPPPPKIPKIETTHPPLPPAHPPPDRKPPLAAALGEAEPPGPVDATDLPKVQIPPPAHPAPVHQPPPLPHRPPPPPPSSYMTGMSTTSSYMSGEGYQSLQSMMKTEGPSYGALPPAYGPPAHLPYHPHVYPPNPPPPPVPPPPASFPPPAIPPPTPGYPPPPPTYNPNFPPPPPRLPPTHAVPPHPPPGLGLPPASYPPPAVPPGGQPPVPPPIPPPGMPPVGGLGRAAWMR
Sequence of CDK7 (P50613 whole entry): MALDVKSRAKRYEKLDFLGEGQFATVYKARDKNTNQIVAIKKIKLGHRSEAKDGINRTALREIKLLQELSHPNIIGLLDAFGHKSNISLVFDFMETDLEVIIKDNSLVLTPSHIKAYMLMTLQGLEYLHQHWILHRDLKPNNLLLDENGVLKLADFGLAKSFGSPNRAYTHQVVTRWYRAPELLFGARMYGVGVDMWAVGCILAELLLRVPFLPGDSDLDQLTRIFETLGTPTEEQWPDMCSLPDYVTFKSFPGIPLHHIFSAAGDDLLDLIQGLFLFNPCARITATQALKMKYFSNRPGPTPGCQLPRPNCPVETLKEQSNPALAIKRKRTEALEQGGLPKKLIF
Sequence of CDK17/Cyclin Y (Q00537 whole entry): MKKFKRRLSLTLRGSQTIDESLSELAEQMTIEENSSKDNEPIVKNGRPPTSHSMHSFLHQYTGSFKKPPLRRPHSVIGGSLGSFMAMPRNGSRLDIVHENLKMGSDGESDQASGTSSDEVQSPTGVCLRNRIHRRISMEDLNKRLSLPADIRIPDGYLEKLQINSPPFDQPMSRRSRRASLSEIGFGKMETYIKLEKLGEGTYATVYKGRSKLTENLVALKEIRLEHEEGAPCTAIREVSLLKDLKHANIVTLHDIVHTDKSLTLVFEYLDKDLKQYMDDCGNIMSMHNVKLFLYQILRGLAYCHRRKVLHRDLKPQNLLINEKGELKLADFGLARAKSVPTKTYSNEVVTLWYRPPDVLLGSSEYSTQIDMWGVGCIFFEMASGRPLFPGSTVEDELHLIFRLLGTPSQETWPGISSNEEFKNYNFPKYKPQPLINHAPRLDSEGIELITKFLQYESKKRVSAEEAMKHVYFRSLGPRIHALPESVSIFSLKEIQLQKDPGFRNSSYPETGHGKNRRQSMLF
Sequence of CDK17/Cyclin Y (Q8ND76 whole entry partner): as the sequence (Q8ND76 whole entry partner) above

For `Cc1c(Br)c(Br)c2c3c1nc(N1CCNCC1)n3CCC2.Cl` [SEL 120-34A], the “CDK12/K Inhibition at 10µM (%)” value (CDK12/Cyclin K; average of experiments) was 44.4%, the “CDK12/K Inhibition at 10µM (%)” value (CDK12/Cyclin K; independent experiment 1) was 40.8% and the “CDK12/K Inhibition at 10µM (%)” value (CDK12/Cyclin K; independent experiment 2) was 48.0%. The “CDK20/H Inhibition at 10µM (%)” value (CDK20/Cyclin H; independent experiment 1) was 7.8%, the “CDK20/H Inhibition at 10µM (%)” value (CDK20/Cyclin H; independent experiment 2) was 31.3% and the “CDK6/D1 Inhibition at 10µM (%)” value (CDK6/Cyclin D1; average of experiments) was 31.6%. For the same molecule, the “CDK6/D1 Inhibition at 10µM (%)” value (CDK6/Cyclin D1; independent experiment 1) was 10.1%, the “CDK6/D1 Inhibition at 10µM (%)” value (CDK6/Cyclin D1; independent experiment 2) was 53.1% and the “CDK19/C Inhibition at 10µM (%)” value (CDK19/Cyclin C; average of experiments) was 99.2%. For the same molecule, the “CDK19/C Inhibition at 10µM (%)” value (CDK19/Cyclin C; independent experiment 1) was 96.4%, the “CDK19/C Inhibition at 10µM (%)” value (CDK19/Cyclin C; independent experiment 2) was 102.0% and the IC50 (CDK19/Cyclin C; read-out: CDK19/C IC50, independent experiment 1) was 0.12 µM. The IC50 (CDK19/Cyclin C; read-out: CDK19/C IC50, independent experiment 2) was 0.14 µM, the IC50 (CDK19/Cyclin C; read-out: CDK19/Y IC50, average (± SEM where n=3)) was 0.13 µM and the “CDK9/K Inhibition at 10µM (%)” value (CDK9/Cyclin K; average of experiments) was 71.2%. For the same molecule, the “CDK9/K Inhibition at 10µM (%)” value (CDK9/Cyclin K; independent experiment 1) was 54.9%, the “CDK9/K Inhibition at 10µM (%)” value (CDK9/Cyclin K; independent experiment 2) was 87.6% and the “CDK4/D1 Inhibition at 10µM (%)” value (CDK4/Cyclin D1; average of experiments) was 37.4%. For the same molecule, the “CDK4/D1 Inhibition at 10µM (%)” value (CDK4/Cyclin D1; independent experiment 1) was 12.4%, the “CDK4/D1 Inhibition at 10µM (%)” value (CDK4/Cyclin D1; independent experiment 2) was 62.4% and the “CDK7 Inhibition at 10µM (%)” value (CDK7; average of experiments) was 37.0%. The “CDK7 Inhibition at 10µM (%)” value (CDK7; independent experiment 1) was 34.4%, the “CDK7 Inhibition at 10µM (%)” value (CDK7; independent experiment 2) was 39.7% and the “CDK14/Y Inhibition at 10µM (%)” value (CDK14/Cyclin Y; average of experiments) was 26.1%. For the same molecule, the “CDK14/Y Inhibition at 10µM (%)” value (CDK14/Cyclin Y; independent experiment 1) was 21.7%, the “CDK14/Y Inhibition at 10µM (%)” value (CDK14/Cyclin Y; independent experiment 2) was 30.4% and the “CDK13/K Inhibition at 10µM (%)” value (CDK13/Cyclin K; average of experiments) was 36.8%. For the same molecule, the “CDK13/K Inhibition at 10µM (%)” value (CDK13/Cyclin K; independent experiment 1) was 29.4%, the “CDK13/K Inhibition at 10µM (%)” value (CDK13/Cyclin K; independent experiment 2) was 44.2% and the “CDK16/Y Inhibition at 10µM (%)” value (CDK16/Cyclin Y; independent experiment 1) was 51.2%. For the same molecule, the “CDK16/Y Inhibition at 10µM (%)” value (CDK16/Cyclin Y; independent experiment 2) was 12.7%, the “CDK15/Y Inhibition at 10µM (%)” value (CDK15/Cyclin Y; average of experiments) was 37.3% and the “CDK15/Y Inhibition at 10µM (%)” value (CDK15/Cyclin Y; independent experiment 1) was 38.3%. For the same molecule, the “CDK15/Y Inhibition at 10µM (%)” value (CDK15/Cyclin Y; independent experiment 2) was 36.3%, the “CDK18/Y Inhibition at 10µM (%)” value (CDK18/Cyclin Y; average of experiments) was 39.4% and the “CDK18/Y Inhibition at 10µM (%)” value (CDK18/Cyclin Y; independent experiment 1) was 47.0%. For the same molecule, the “CDK18/Y Inhibition at 10µM (%)” value (CDK18/Cyclin Y; independent experiment 2) was 31.9%, the “CDK5/CDK5R1 Inhibition at 10µM (%)” value (CDK5/CDK5R1; average of experiments) was 46.5% and the “CDK5/CDK5R1 Inhibition at 10µM (%)” value (CDK5/CDK5R1; independent experiment 1) was 31.2%. The “CDK5/CDK5R1 Inhibition at 10µM (%)” value (CDK5/CDK5R1; independent experiment 2) was 61.8%, the “CDK11b/L2 Inhibition at 10µM (%)” value (CDK11B/Cyclin L2; average of experiments) was 38.1% and the “CDK11b/L2 Inhibition at 10µM (%)” value (CDK11B/Cyclin L2; independent experiment 1) was 35.0%. For the same molecule, the “CDK11b/L2 Inhibition at 10µM (%)” value (CDK11B/Cyclin L2; independent experiment 2) was 41.2%, the “CDK1/E1 Inhibition at 10µM (%)” value (CDK1/Cyclin E1; average of experiments) was 37.6% and the “CDK1/E1 Inhibition at 10µM (%)” value (CDK1/Cyclin E1; independent experiment 1) was 21.0%. The “CDK1/E1 Inhibition at 10µM (%)” value (CDK1/Cyclin E1; independent experiment 2) was 54.1%, the “CDK8/C Inhibition at 10µM (%)” value (CDK8/Cyclin C; average of experiments) was 97.3% and the “CDK8/C Inhibition at 10µM (%)” value (CDK8/Cyclin C; independent experiment 1) was 96.1%. The “CDK8/C Inhibition at 10µM (%)” value (CDK8/Cyclin C; independent experiment 2) was 98.6%, the IC50 (CDK8/Cyclin C; average (± SEM where n=3)) was 0.075 µM and the IC50 (CDK8/Cyclin C; independent experiment 1) was 0.073 µM. For the same molecule, the IC50 (CDK8/Cyclin C; independent experiment 2) was 0.077 µM, the “CDK17/Y Inhibition at 10µM (%)” value (CDK17/Cyclin Y; average of experiments) was 38.7% and the “CDK17/Y Inhibition at 10µM (%)” value (CDK17/Cyclin Y; independent experiment 1) was 45.5%. For the same molecule, the “CDK17/Y Inhibition at 10µM (%)” value (CDK17/Cyclin Y; independent experiment 2) was 32.0%, the “CDK11a/L2 Inhibition at 10µM (%)” value (CDK11A/Cyclin L2; average of experiments) was 43.7% and the “CDK11a/L2 Inhibition at 10µM (%)” value (CDK11A/Cyclin L2; independent experiment 1) was 31.1%. The “CDK11a/L2 Inhibition at 10µM (%)” value (CDK11A/Cyclin L2; independent experiment 2) was 56.3%, the “CDK10/L2 Inhibition at 10µM (%)” value (CDK10/Cyclin L2; average of experiments) was 33.9% and the “CDK10/L2 Inhibition at 10µM (%)” value (CDK10/Cyclin L2; independent experiment 1) was 26.3%. The “CDK10/L2 Inhibition at 10µM (%)” value (CDK10/Cyclin L2; independent experiment 2) was 41.4%, the “CDK3/E1 Inhibition at 10µM (%)” value (CDK3/Cyclin E1; average of experiments) was 33.7% and the “CDK3/E1 Inhibition at 10µM (%)” value (CDK3/Cyclin E1; independent experiment 1) was 26.5%. The “CDK3/E1 Inhibition at 10µM (%)” value (CDK3/Cyclin E1; independent experiment 2) was 40.8%, the “CDK2/E1 Inhibition at 10µM (%)” value (CDK2/Cyclin E1; average of experiments) was 22.7% and the “CDK2/E1 Inhibition at 10µM (%)” value (CDK2/Cyclin E1; independent experiment 1) was 24.3%. For the same molecule, the “CDK2/E1 Inhibition at 10µM (%)” value (CDK2/Cyclin E1; independent experiment 2) was 21.2%.
